Measurements as given in patent US20020034725A1, “SENSITIZATION OF CELLS TO RADIATION AND AND CHEMOTHERAPY” (priority 1996, published 2002).

How the values were obtained:
H-ras^v12 [1] = experiment: Western blot of H-ras farnesylation in H-ras transformed REF cells (3.7, 4R, 5R); type: cell-based, rat
Description: The oncogene-transfected cells used in this study were all derived from early passage rat embryo fibroblast (REF) by transfection with the pEJ plasmid containing the H-ras gene isolated from the EJ bladder carcinoma. This vector was introduced by calcium phosphate DNA transfer into primary REF, either alone or together with the pMC29 vector containing v-myc. One clone containing both the introduced H-ras gene and the v-myc genes is 3.7 (McKenna et al., 1990, Cancer Res. 50:97-102). 4R and 5R cells were obtained as rare transformants after transfection with the pEJ plasmid alone (McKenna et al., 1993, supra). MR4 cells were immortalized by transfection with an expression vector comprising v-myc linked to a neomycin-resistant selectable marker (McKenna et al., 1991, Radiat. Res. 125:283-287). REF-GG cells were obtained by transforming REF cells with a chimeric H-ras(v12) in which the CAAX motif is CVLL. All cell lines were mycoplasma free.
(§1) Cells were lysed in culture dishes with 1 x reducing Laemmli sample buffer. Samples were boiled, sheared and clarified by centrifugation at 14,000 rpm in a microfuge before storage at −20° C. Samples containing equal amounts of protein were separated on a 12% SDS polyacrylamide gel and electrophoretically transferred to nitrocellulose membranes. Membranes were blocked for 1-2 hours in PBS containing 0.1% Tween-20 and 5% powdered milk before antibody addition. Membranes were probed with monoclonal pan-ras antibody AB-4 (Oncogene Science, Uniondale, N.Y.) at a concentration of 0.5 μg/ml, or with monoclonal H-ras antibody LA069 (1:5000 dilution; Quality Biotech, Camden, N.J.). Detection of protein was accomplished using the ECL chemiluminescence kit (Amersham, Arlington Heights, Ill.). Images were digitized using an Arcus II scanner, and figures were assembled using Adobe Photoshop 3.0.
Transformed REF cells derived from the R5 cell line were treated with 5 μm FTI-277 to establish a time course for the accumulation of unfarnesylated H-ras. Prenylated forms of ras migrate more rapidly than unprenylated ras on SDSpolyacrylamide gels (Gutierrez et al., 1989, EMBO J. 8:1093-1098; Farh et al., 1995, Arch. Biochem. Biophys. 18:113-121). This shift in motility was used to assess the prenylation status of H-ras after farnesyltransferase inhibitor treatment.

H-ras = experiment: Western blot of ras farnesylation in mouse prostate tumor cells; type: cell-based; conditions: primary tumor cells or metastatic clone, 24 hours
Protocol: FIG. 13A is an image of a Western blot depicting the effects of FTI-277 on ras farnesylation in cultured cells derived from a primary and a metastatic tumor following 24 hours of treatment with the inhibitor at the indicated concentrations. Mouse prostate tumor cells transformed with H-ras^v12 and myc oncogenes were treated with the indicated doses (μM) of FTI-277. After 24 hours, samples were harvested for Western blot analysis using an anti-H-ras antibody. The upper band (arrow) corresponds to unfarnesylated H-ras. C denotes controls.
as §1, with “Images were digitized using an Arcus II scanner, and figures were assembled using Adobe Photoshop 3.0.” left out

[2] = system: 5R, 3.7, MR4 and REF cells; experiment: Radiation survival determination (clonogenic survival); type: cell-based, rat; conditions: for plating efficiency: unaffected by FTI-277
Protocol: FIG. 14A comprises a series of graphs depicting clonogenic survival of 5R, 3.7, MR4, and REF cells following treatment with FTI-277 and irradiation of the cells. Immediately prior to irradiation, FTI-277 was added at concentrations of 2.5 μM (3.7 cells) or 5 μM (5R, MR4 and REF cells). The inhibitor was diluted out of the culture medium 24 hours later resulting in a final concentration of inhibitor of 1 μM (3.7 cells) or 2 μM (5R, MR4 and REF). The plating efficiencies of MR4 and […] were unaffected by treatment with FTI-277, being 100% and 32-38%, respectively. FTI-277 reduced the plating efficiency of 3.7 and REF cells by 50% of untreated control values which were 75% and 5%, respectively. […] The data points shown represent the mean of the results obtained from at least three separate dishes of cells. The open symbols indicate the results obtained in untreated cells and the closed symbols are those results obtained in cells treated with FTI-277. In the panel labeled 3.7, the open triangles are the results obtained in untreated MR4 cells.
Cells obtained from log growth cultures were plated in 60-mm dishes and allowed to attach for 4 hours before addition of FTI-277 to the medium. The plating medium was then removed and fresh medium containing FTI-277 in DMSO or DMSO alone (for control dishes) was added immediately before irradiation. Cells were irradiated with a Mark I cesium irradiator (J. S. Shepherd, San Fernando, Calif.) at a dose rate of 1.7 Gray per minute. Colonies of cells were stained and counted 10-14 days after irradiation (McKenna et al., 1990, supra). The surviving fraction of cells at a given dose is defined as: [formula]
Each point on the survival curves represents the mean surviving fraction from at least three dishes of cells.

H-ras^v12 [3] = experiment: Western blot of H-ras farnesylation in T24 bladder carcinoma cells; type: cell-based, human; conditions: 5 μM
Protocol: FIG. 16A is an image of a Western blot depicting changes in farnesylation of H-ras^v12 following treatment of human bladder carcinoma cells with FTI-277. T24 bladder carcinoma cells were treated with 5 μM of FTI-277 for the times indicated (hours). Samples were harvested and cell lysates were prepared for Western blot analysis using anti-H-ras antibody. Untreated control samples harvested at 0 and 30 hours are shown for comparison.
as §1

FTase = FTase (Homo sapiens, UniProt P49354+P49356); conditions: cited from earlier work

## COC(=O)[C@H](CCSC)NC(=O)c1ccc(NC[C@@H](N)CS)cc1-c1ccccc1 [FTI-277]
H-ras^v12 [1]; 3.7, 4R and 5R cells, 2.5 to 10 μm, 24 hours
  H-ras farnesylation status: primarily unfarnesylated
H-ras^v12 [1]; 3.7 cells, 5 μm for 30 hours, then removed
  time by which detectable farnesylated H-ras was observed after removal of inhibitor: ≤ 2 h
H-ras^v12 [1]; 3.7 cells, 6 hours after removal
  H-ras in the farnesylated form after removal of inhibitor: about 50%
H-ras^v12 [1]; 3.7 cells, 24 hours after removal
  form of H-ras after removal of inhibitor: majority of the H-ras in the cells was in the farnesylated form
H-ras^v12 [1]; 5R cells, 5 μm FTI-277
  time by which conversion of H-ras to the slower moving form was observed: ≤ 4 h
H-ras^v12 [1]; 5R cells, 5 μm FTI-277, 6-8 hours after addition
  detectable H-ras in the unfarnesylated form: approximately 50%
H-ras^v12 [1]; H-ras transformed REF cells
  time to reversal of accumulation of unfarnesylated H-ras after removal of inhibitor: ≤ 24 h
H-ras
  H-ras farnesylation: dose-dependent reduction of the farnesylated form
[2]; 3.7 (2.5 μM) and 5R (5 μM) cells, 24 hours after irradiation
  radioresistance (survival curves): reduced to a level of survival which was similar to that seen in MR4 cells
[2]; 3.7 and REF cells
  reduction of plating efficiency, of untreated control values: 50%
[2]; 5R cells
  plating efficiency: 32-38%
[2]; MR4 cells
  plating efficiency: 100%
[2]; MR4 or REF cells, 5 μM
  radiation survival: no effect on radiation survival
H-ras^v12 [3]
  time after which unfarnesylated H-ras was detectable: 5 h
  time required to achieve 50% of ras in the unfarnesylated form: 24 h
FTase
  FTase inhibition: inhibited Ftase activity
